Source: patent US20230340027A1, “UBIQUITIN HIGH AFFINITY PEPTIDES, AND METHODS OF USING SAME, AND IDENTIFYING SAME” (TECHNION RESEARCH & DEVELOPMENT FOUNDATION LIMITED, priority 2020, published 2023)
Values belong to the compound of their own block, whether it stands above or below them. Starred links: 1 amine or outer side, 2 acyl side, 3 side chain; linkers in the order of their positions; H or OH if unused. Positions of bridges follow the written chain, without caps; N, C: chain ends. Non-standard residues stand in square brackets, D forms with d. Residues, ends and D or L forms follow the SMILES beside them. Chains are numbered I, II in the order given. No end group written: not given here. *: point of attachment. Fluorescein(5-Mal) = O=C1OC2(c3ccc(O)cc3Oc3cc(O)ccc32)c2ccc(N3C(=O)CC(*)C3=O)cc21; CH2 = C([*:1])[*:2]

Experiments:
HeLa cells [1] = assay: Peptide cell uptake, live-cell confocal microscopy; format: cell-based; settings: 1 μM, 2 hours, confocal microscope, FITC signal
Protocol: HeLa cells (CCL-2™) were purchased from ATCC®. Dulbecco's modified Eagle's medium (DMEM), Eagle's minimum essential medium (EMEM), Fetal bovine serum (FBS), L-Glutamine, antibiotics (penicillin/streptomycin), trypsin/EDTA and phosphate-buffered saline (PBS) were purchased from biological industries. Hoechst 33342 solution (20 mM), SYTOX blue (5 mM) and Lysotracker probes were purchased from Thermo-fisher. μ-Slide 8 well ibiTreat for live-cell confocal microscopy was purchased from ibidi and polylysine hydrobromide was purchased from Sigma. Distribution of fluorescent peptides in live cells was analyzed using a confocal laser scanning microscope (Confocal Zeiss LSM 710) equipped with 40×NA 1.2 water immersion objective. During CLSM analysis the samples were kept at 37° C. in a humidified chamber.
The cells were washed with PBS buffer followed by addition of fresh phenol-free optical medium and live-cell imaging was carried out using a LSM 710 laser scanning confocal microscope equipped with an environmental control module.

tetra-Ub K48 = target: T1, tetra-Ub K48 (Homo sapiens, UniProt P0CG47); assay: Kd determination of FITC-labeled peptides on immobilized biotin-tetra-UbK48 (fluorescence binding curve); settings: FITC-labeled peptide, tetra-Ub K48, one site non-cooperative binding model, triplicates; read-out: dissociation constant (Kd)
T1 construct: a Ub polymer comprises Ub monomers linked to one another at lysine (Lys) residue at position 48 (K48); made in house; host or cells: total chemical synthesis (no expression host)
Protocol: (1C) The bound peptides are released using Guanidinium-HCl (Gn·HCl) and the fluorescence intensity is measured. (1ii) A non-limiting schematic representation for measuring the dissociation constant (Kd) of FITC-labeled peptide with different concentrations. (1D) A FITC-labeled cyclic peptide with different concentrations are introduced in different wells for binding to the biotin-tetra Ub. (1E) Washing out the unbounded labeled cyclic peptide. (1F) The bound peptides are released using Gn·HCl and the fluorescence intensity is measured. […] All measurements were performed in triplicates.
To determine the dissociation constant (Kd) of labeled peptides, following immobilization step of biotin-tetra-UbK48, different concentrations of the labeled peptide were incubated. Then, the bound cyclic peptides were released with 6 M Gn·HCl, followed by fluorescence measurement (λex=480 nm and λem=525 nm). […]
First, biotin tagged tetra-UbK48 was immobilized in a constant amount (1 μg per well) in streptavidin covered 96 well plate (FIG. 1(i and ii)). […] Finally, the bound peptides were released from wells by treatment with 6 M guanidine hydrochloride (Gn·HCl) solution followed by measuring the gained fluorescence (FIG. 1(i)). The obtained values were then compared to the fluorescence of the control well containing the unlabeled peptide to calculate relative binding. […]

biotin-tetra-UbK48 = target: T2, biotin-tetra-UbK48 (Homo sapiens, UniProt P0CG47); assay: Fluorescence-based competitive assay for peptide screening (relative binding vs Ub4_ix); settings: 5 molar equiv unlabeled peptide, competition with Ub4_ix-FITC; fluorescence inversely proportional to affinity
T2 construct: a Ub polymer comprises Ub monomers linked to one another at lysine (Lys) residue at position 48 (K48); made in house; host or cells: total chemical synthesis (no expression host)
Protocol: Streptavidin-coated microplate (96 well plate) was washed (3×100 μl) with HEPES buffer. Then, 1 μg of biotin-tetra-UbK48 in 100 μl of HEPES buffer was incubated in each well for 30 minutes at room temperature (RT). Additional wells were kept free of biotin-tetra-UbK48 for subsequent blank subtraction. Following a washing step, unlabeled candidate peptides, including peptide-standard (Ub4_ix), were incubated in an excess amount (5 molar equiv. relative to biotin-tetra-UbK48) for 30 minutes at RT to saturate binding to the target. […] Finally, following washing, each well was treated with 100 μl of 6 M Gn·HCl at RT for 30 minutes to release the bound peptides. Then, the solution with the released peptides was transferred to Nunc black 96-well plate and fluorescence was measured (λ excitation=480 nm and λ emission=525 nm). The obtained values were then normalized, and compared with peptide standard, while the fluorescence signal was inversely proportional to the binding affinity of the peptide. The calculations of relative change in binding were performed according to the formula: Y=−[1−(a/b)]×100, where Y is the change in the signal relative to the standard Ub4_ix (in percentage); a is signal measured for each peptide variant (in relative fluorescence units); b is signal measured for Ub4_ix.
The inventors envisioned a screening strategy to proceed through four main steps, each terminated by washings with binding buffer. First, biotin tagged tetra-UbK48 was immobilized in a constant amount (1 μg per well) in streptavidin covered 96 well plate (FIG. 1(i and ii)). Then, unlabeled candidate peptides were incubated in excess in each well to saturate binding to the target. […] Finally, the bound peptides were released from wells by treatment with 6 M guanidine hydrochloride (Gn·HCl) solution followed by measuring the gained fluorescence (FIG. 1(i)). The obtained values were then compared to the fluorescence of the control well containing the unlabeled peptide to calculate relative binding. The gained fluorescence was inversely proportional to the binding affinity of the peptide candidate. […]

HeLa cells [2] = assay: Flow cytometry annexin V-FITC/PI apoptosis / viability assay; format: cell-based
Protocol: Induction of apoptosis in Hela cell lines by treatment with cyclic peptides was determined using annexin V-FITC/propidium iodide(PI) apoptosis detection kit (BD Biosciences) according to the manufacturer's protocol. 2×10^5 cells/well were treated with inhibitors for 24- and 48-hours in a dose dependent manner. Apoptotic cells were determined as annexin V-FITC positive and PI negative. DMSO and MG132 were used as negative and positive controls respectively. Samples were acquired on a Becton Dickinson LSR II flow cytometer (BD Biosciences) and analyzed using Flowjo software.

Compound: CC[C@H](C)[C@@H]1NC(=O)[C@H](Cc2c[nH]c3ccccc23)NC(=O)[C@H](Cc2c[nH]c3ccccc23)NC(=O)[C@H](CC(=O)O)NC(=O)CNC(=O)[C@H](CSCSC[C@@H]2NC(=O)[C@H](CC(=O)O)NC(=O)[C@H](CC(=O)O)NC(=O)[C@H](CC(C)C)NC(=O)[C@H](Cc3ccc(O)cc3)NC(=O)[C@H](CC(C)C)NC(=O)[C@@H](Cc3c[nH]c4ccccc34)NC(=O)CSC[C@@H](C(=O)NCC(=O)N[C@@H](C)C(=O)N[C@@H](CSC3CC(=O)N(c4ccc5c(c4)C(=O)OC54c5ccc(O)cc5Oc5cc(O)ccc54)C3=O)C(N)=O)NC(=O)[C@H]([C@@H](C)CC)NC(=O)[C@H](Cc3c[nH]c4ccccc34)NC(=O)[C@H](Cc3c[nH]c4ccccc34)NC(=O)[C@H](CC(=O)O)NC(=O)CNC2=O)NC(=O)[C@H](CC(=O)O)NC(=O)[C@H](CC(=O)O)NC(=O)[C@H](CC(C)C)NC(=O)[C@H](Cc2ccc(O)cc2)NC(=O)[C@H](CC(C)C)NC(=O)[C@@H](Cc2c[nH]c3ccccc23)NC(=O)CSC[C@@H](C(=O)NCC(=O)N[C@@H](C)C(=O)N[C@@H](CSC2CC(=O)N(c3ccc4c(c3)C(=O)OC43c4ccc(O)cc4Oc4cc(O)ccc43)C2=O)C(N)=O)NC1=O (some centres unmarked) [peptide 30] (I: {CH2CO}-[dW]LYLDDCGDWWICGAC(Fluorescein(5-Mal))-NH2 / II: {CH2CO}-[dW]LYLDDCGDWWICGAC(Fluorescein(5-Mal))-NH2; linker I:7-II:7 via CH2; thioether I:N-I:13, II:N-II:13)
- cellular uptake / permeability and localization (HeLa cells [1]): permeability and cytosolic localization
- cellular uptake / permeability and localization (HeLa cells [1]; listed as (Ub4_ix_S7C)2CH2-FITC): quickly and efficiently distributed within cells
- Kd (tetra-Ub K48): 12.3 ± 1.26 nM

- change in the relative fluorescence signal compared to Ub4_ix (improved binding) (biotin-tetra-UbK48): ~70%
Compound: peptide 23: disulfide bond containing dimeric cyclic peptide of Ub4_ix_S7C ({CH2CO}-WLYLDDCGDWWICG; thioether N-13 (inferred); also: dimer joined by disulfide bond, places not given here)

- change in the relative fluorescence signal compared to Ub4_ix (improved binding) (biotin-tetra-UbK48): ~13%
Compound: Ub4_ix_S7A: Ub4_ix analogue from Alanine scan, position 7 Ala; likely WLYLDDAGDWWICG (SEQ ID NO: 5) ({CH2CO}-WLYLDDAGDWWICG; thioether N-13 (inferred))

- change in the relative fluorescence signal compared to Ub4_ix (improved binding) (biotin-tetra-UbK48): ~57%
Compound: 24: methylene group stapled dimer of Ub4_ix_S7C, —S—CH2—S— bridge ({CH2CO}-WLYLDDCGDWWICG; thioether N-13 (inferred); also: dimer: Cys7 joined to Cys7 of second copy by -S-CH2-S- bridge) [compound 24]
- early- and late stage apoptosis compared to Ub4_ix (HeLa cells [2]; HeLa cells, Annexin V/PI, 24 or 48 h): increased early- and late stage apoptosis
- induction of cell death (HeLa cells [2]; Hela cells, 24- and 48-hours incubation): able to induce cell death
